The IC50 is the concentration at which inhibition is half-maximal. Low values mean inhibition by little substance, high ones a need for much substance. For orientation: Ki means the equilibrium dissociation constant of an inhibitor or competing ligand from its target. Read a high Ki as weaker binding.

Results on 1 molecule are retold here after article PMC7582776 (Molecules, 2020).

The target in experiment [1] is T1, CYP2D6 (Homo sapiens, UniProt P10635).
T1 construct: native enzyme in ultrapooled human liver microsomes
The experiment in a line: LC-MS/MS, bufuralol (substrate cocktail). It counts as biochemical.

Experiment [2] concerns the target T2, CYP2C8 (Homo sapiens, UniProt P10632).
T2 construct: native enzyme in ultrapooled human liver microsomes
T2 sequence (P10632 1-490): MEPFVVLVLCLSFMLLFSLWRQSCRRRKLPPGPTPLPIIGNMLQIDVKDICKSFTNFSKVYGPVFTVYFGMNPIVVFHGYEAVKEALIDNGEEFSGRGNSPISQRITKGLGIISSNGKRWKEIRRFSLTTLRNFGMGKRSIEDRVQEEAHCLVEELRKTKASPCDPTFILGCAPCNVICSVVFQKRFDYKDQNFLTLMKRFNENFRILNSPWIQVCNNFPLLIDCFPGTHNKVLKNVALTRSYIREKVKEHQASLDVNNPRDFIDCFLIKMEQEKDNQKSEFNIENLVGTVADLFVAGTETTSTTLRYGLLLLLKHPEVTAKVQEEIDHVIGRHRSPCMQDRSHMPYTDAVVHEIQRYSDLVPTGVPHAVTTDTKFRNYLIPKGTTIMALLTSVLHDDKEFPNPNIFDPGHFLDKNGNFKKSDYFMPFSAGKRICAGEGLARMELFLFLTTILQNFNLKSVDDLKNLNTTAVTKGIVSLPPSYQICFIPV
Nature of the experiment: LC-MS/MS, amodiaquine N-de-ethylation (substrate cocktail). The format is biochemical. The text has this: LC-MS/MS, amodiaquine N-de-ethylation (substrate cocktail) on CYP2C8

Experiment [3] deals with T3, CYP2C9 (Homo sapiens, UniProt P11712).
T3 construct: native enzyme in ultrapooled human liver microsomes
The experiment in a line: LC-MS/MS, diclofenac, Lineweaver-Burk/Dixon. It counts as biochemical.

The target of experiment [4] is T2, CYP2C8. The experiment in a line: LC-MS/MS, amodiaquine N-de-ethylation, Lineweaver-Burk/Dixon. The format is biochemical. The text has this:
LC-MS/MS, amodiaquine N-de-ethylation, Lineweaver-Burk/Dixon on CYP2C8

For experiment [5], the target named is T1, CYP2D6. The experiment in a line: LC-MS/MS, bufuralol, Lineweaver-Burk/Dixon. The format is biochemical.
Experiment [6] addresses T4, CYP2C19 (Homo sapiens, UniProt P33261).
T4 construct: native enzyme in ultrapooled human liver microsomes
Nature of the experiment: LC-MS/MS, [S]-mephenytoin, Lineweaver-Burk/Dixon. It counts as biochemical.

The target of experiment [7] is T5, CYP2B6 (Homo sapiens, UniProt P20813).
T5 construct: native enzyme in ultrapooled human liver microsomes
T5 sequence (P20813 1-491): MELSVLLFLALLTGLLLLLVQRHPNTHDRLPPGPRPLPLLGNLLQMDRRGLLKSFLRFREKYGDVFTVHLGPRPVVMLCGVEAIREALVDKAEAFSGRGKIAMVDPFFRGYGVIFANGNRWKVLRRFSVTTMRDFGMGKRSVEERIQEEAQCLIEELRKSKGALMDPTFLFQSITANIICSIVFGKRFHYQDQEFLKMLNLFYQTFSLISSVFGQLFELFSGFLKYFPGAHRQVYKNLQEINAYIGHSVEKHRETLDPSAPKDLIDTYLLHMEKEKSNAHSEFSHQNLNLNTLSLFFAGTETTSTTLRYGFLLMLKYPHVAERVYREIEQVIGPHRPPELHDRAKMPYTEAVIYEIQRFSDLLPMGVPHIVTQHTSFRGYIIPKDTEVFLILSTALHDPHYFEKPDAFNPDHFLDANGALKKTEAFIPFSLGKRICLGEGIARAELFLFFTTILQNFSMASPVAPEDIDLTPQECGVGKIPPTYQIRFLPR
The experiment in a line: LC-MS/MS, bupropion hydroxylation, Lineweaver-Burk/Dixon. The format is biochemical. The text has this: LC-MS/MS, bupropion hydroxylation, Lineweaver-Burk/Dixon on CYP2B6

The next experiment concerns the target T6, CYP1A2 (Homo sapiens, UniProt P05177).
T6 construct: native enzyme in ultrapooled human liver microsomes
T6 sequence (P05177 2-516): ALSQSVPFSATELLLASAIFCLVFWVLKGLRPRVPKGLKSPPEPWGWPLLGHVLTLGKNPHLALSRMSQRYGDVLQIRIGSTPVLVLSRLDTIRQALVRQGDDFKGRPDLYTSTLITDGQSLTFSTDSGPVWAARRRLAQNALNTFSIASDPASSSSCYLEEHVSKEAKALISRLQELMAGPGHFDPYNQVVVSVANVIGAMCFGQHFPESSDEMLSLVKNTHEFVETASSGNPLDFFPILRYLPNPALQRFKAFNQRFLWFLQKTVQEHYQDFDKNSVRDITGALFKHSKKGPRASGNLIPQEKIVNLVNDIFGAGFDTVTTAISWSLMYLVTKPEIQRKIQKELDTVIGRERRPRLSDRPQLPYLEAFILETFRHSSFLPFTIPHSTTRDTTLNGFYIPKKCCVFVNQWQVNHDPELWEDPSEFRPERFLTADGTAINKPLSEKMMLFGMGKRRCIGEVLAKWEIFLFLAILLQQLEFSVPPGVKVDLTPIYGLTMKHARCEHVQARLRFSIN
Nature of the experiment: LC-MS/MS, phenacetin O-de-ethylation (substrate cocktail). The format is biochemical. The text has this: LC-MS/MS, phenacetin O-de-ethylation (substrate cocktail) on CYP1A2

Experiment [8] concerns the target T7, OATP1B1 (Homo sapiens, UniProt Q9Y6L6).
T7 construct: gene SLCO1B1; transiently overexpressed in HEK293 cells (Corning)
T7 sequence (Q9Y6L6 1-691): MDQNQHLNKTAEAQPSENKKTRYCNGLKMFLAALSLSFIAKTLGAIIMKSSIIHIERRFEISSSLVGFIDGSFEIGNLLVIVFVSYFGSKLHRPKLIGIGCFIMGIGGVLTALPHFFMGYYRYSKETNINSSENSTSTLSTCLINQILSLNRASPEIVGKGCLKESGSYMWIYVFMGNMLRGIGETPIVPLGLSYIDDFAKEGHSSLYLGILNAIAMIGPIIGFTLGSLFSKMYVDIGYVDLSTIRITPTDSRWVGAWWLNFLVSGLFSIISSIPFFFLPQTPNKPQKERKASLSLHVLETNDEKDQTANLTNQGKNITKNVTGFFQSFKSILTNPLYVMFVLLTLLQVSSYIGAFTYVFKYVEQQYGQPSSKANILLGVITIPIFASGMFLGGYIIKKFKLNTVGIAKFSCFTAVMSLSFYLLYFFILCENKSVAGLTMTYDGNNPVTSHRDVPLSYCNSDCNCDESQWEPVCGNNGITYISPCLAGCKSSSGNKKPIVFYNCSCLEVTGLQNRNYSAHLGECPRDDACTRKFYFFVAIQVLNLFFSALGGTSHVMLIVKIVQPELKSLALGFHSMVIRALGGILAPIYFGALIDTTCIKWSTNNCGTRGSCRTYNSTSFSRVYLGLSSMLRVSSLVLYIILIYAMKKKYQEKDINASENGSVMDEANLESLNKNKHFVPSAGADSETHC
Nature of the experiment: [3H]estrone-3-sulfate uptake in HEK293-OATP1B1 cells, Lineweaver-Burk. It counts as cell-based. The source says:
[3H]estrone-3-sulfate uptake in HEK293-OATP1B1 cells, Lineweaver-Burk on OATP1B1

Experiment [9] has as its target T4, CYP2C19. Nature of the experiment: LC-MS/MS, [S]-mephenytoin (substrate cocktail). It counts as biochemical.
Experiment [10] has as its target T3, CYP2C9. The experiment in a line: LC-MS/MS, diclofenac (substrate cocktail). It counts as biochemical.
Experiment [11] has as its target T5, CYP2B6. The experiment in a line: LC-MS/MS, bupropion hydroxylation. It counts as biochemical. The text has this:
LC-MS/MS, bupropion hydroxylation on CYP2B6

Experiment [12] addresses T7, OATP1B1. Nature of the experiment: [3H]estrone-3-sulfate uptake in HEK293-OATP1B1 cells. The format is cell-based.

T4 sequence (P33261 whole entry): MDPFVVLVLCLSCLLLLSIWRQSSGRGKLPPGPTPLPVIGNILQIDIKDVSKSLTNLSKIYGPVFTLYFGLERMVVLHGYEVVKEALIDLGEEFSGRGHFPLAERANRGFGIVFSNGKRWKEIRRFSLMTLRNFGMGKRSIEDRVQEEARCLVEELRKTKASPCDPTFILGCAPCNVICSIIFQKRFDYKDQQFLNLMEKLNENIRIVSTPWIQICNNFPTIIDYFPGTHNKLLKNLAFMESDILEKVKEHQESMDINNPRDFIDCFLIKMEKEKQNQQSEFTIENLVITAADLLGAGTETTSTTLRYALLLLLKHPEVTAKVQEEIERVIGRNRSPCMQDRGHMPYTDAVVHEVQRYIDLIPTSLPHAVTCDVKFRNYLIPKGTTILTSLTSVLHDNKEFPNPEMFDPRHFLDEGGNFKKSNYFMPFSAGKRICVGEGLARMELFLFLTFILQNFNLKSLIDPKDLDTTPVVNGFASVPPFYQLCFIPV
T1 sequence (P10635 whole entry): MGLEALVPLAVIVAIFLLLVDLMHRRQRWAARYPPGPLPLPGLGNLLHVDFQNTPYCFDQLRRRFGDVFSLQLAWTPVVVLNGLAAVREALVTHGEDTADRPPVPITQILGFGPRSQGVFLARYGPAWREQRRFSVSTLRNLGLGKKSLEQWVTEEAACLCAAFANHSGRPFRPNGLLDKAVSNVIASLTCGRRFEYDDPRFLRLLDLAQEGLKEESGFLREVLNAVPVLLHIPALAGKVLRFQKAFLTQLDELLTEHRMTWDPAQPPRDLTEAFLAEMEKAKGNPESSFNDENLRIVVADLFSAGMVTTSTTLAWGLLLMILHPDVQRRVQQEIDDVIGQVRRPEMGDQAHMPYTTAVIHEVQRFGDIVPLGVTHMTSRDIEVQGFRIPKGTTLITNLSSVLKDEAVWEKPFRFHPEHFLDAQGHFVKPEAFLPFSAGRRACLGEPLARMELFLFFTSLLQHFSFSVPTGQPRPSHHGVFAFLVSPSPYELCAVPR
T3 sequence (P11712 whole entry): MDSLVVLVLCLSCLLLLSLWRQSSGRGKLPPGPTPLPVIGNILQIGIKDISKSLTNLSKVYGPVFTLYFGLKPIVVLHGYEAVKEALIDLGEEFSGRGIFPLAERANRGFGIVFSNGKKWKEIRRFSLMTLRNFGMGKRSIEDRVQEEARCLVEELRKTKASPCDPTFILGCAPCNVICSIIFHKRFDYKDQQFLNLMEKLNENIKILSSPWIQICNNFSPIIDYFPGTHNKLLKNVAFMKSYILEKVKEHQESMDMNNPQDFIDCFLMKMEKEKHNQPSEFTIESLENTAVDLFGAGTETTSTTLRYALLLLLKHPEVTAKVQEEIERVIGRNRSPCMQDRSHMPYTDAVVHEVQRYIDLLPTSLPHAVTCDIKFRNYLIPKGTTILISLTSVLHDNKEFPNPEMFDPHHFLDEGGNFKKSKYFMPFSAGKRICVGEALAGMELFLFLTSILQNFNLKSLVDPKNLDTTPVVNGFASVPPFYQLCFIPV

As to `CC(C)[C@H](NC(=O)c1nn(Cc2ccc(F)cc2)c2ccccc12)C(N)=O` [AB-FUBINACA, N-[(1S)-1-(aminocarbonyl)-2-methylpropyl]-1-[(4-fluorophenyl)methyl]-1H-indazole-3-carboxamide], the IC50 against CYP2D6 [1] was 40.4 µM; against CYP2C8 [2], 44.3 µM; against CYP1A2, more than 100 µM; against CYP2C19 [9] it was 19.7 µM; on CYP2C9 [10], 13.5 µM; on CYP2B6 [11] it was 29.9 µM. At OATP1B1 [12], this molecule returned an IC50 of 85.6 µM. For the same molecule, the Ki on CYP2C9 [3] worked out at 13.1 µM; at CYP2C8 [4], 19.9 µM; on CYP2D6 [5], 20.8 µM; on CYP2C19 [6], 6.3 µM; on CYP2B6 [7] it was 15 µM; on OATP1B1 [8], 94.4 µM.
